Measured values as given in PMC7641330 (2020).

Assays:
[1] = system: A10(2AP) Tte riboswitch (RNA, riboswitch, 2-aminopurine at 10) CUGGGUCGCAGUAACCCCAGUUAACAAAACAAG; assay: 2-aminopurine fluorescence titration, one-site fit; conditions: 100 mM NaCl, 2 mM MgCl2; 50 mM Na-HEPES pH 7.0; 100 nM RNA
[2] = system: A13(2AP) Tte riboswitch (RNA, riboswitch, 2-aminopurine at 13) CUGGGUCGCAGUAACCCCAGUUAACAAAACAAG; assay: ITC; conditions: 100 mM NaCl, 4 mM MgCl2; 50 mM Na-HEPES pH 7.0, 25 °C
[3] = system: A32(2AP) Tte riboswitch (RNA, riboswitch, 2-aminopurine at 32) CUGGGUCGCAGUAACCCCAGUUAACAAAACAAG; assay: 2-aminopurine fluorescence titration, one-site fit; conditions: 100 mM NaCl, 2 mM MgCl2; 50 mM Na-HEPES pH 7.0; 100 nM RNA
[4] = system: A14(2AP) Tte riboswitch (RNA, riboswitch, 2-aminopurine at 14) CUGGGUCGCAGUAACCCCAGUUAACAAAACAAG; assay: 2-aminopurine fluorescence titration, one-site fit; conditions: 100 mM NaCl, 2 mM MgCl2; 50 mM Na-HEPES pH 7.0; 100 nM RNA
[5] = system: Wildtype Tte riboswitch, biotinylated (SPR) (RNA, riboswitch) CUGGGUCGCAGUAACCCCAGUUAACAAAACAAG; assay: SPR, 1:1 kinetic fit; conditions: 100 mM NaCl, 3 mM MgCl2; 10 mM Na-HEPES pH 7.4; immobilised RNA
[6] = system: A13(2AP) Tte riboswitch (RNA, riboswitch, 2-aminopurine at 13) CUGGGUCGCAGUAACCCCAGUUAACAAAACAAG; assay: 2-aminopurine fluorescence titration, one-site fit; conditions: 100 mM NaCl, 2 mM MgCl2; 50 mM Na-HEPES pH 7.0; 100 nM RNA
[7] = system: A10(2AP) Tte riboswitch (RNA, riboswitch, 2-aminopurine at 10) CUGGGUCGCAGUAACCCCAGUUAACAAAACAAG; assay: ITC; conditions: 100 mM NaCl, 4 mM MgCl2; 50 mM Na-HEPES pH 7.0, 25 °C
[8] = system: A32(2AP) Tte riboswitch (RNA, riboswitch, 2-aminopurine at 32) CUGGGUCGCAGUAACCCCAGUUAACAAAACAAG; assay: ITC; conditions: 100 mM NaCl, 4 mM MgCl2; 50 mM Na-HEPES pH 7.0, 25 °C
[9] = system: Wildtype Tte preQ1-I riboswitch 33-mer (RNA, riboswitch) CUGGGUCGCAGUAACCCCAGUUAACAAAACAAG; assay: ITC; conditions: 100 mM NaCl, 4 mM MgCl2; 50 mM Na-HEPES pH 7.0, 25 °C
[10] = system: A14(2AP) Tte riboswitch (RNA, riboswitch, 2-aminopurine at 14) CUGGGUCGCAGUAACCCCAGUUAACAAAACAAG; assay: ITC; conditions: 100 mM NaCl, 4 mM MgCl2; 50 mM Na-HEPES pH 7.0, 25 °C

apparent KD [1]: 13.9 ± 0.7 nM | KD [2]: 21.6 ± 1.1 nM | apparent KD [3]: 12.3 ± 1.4 nM | apparent KD [4]: 34.2 ± 1.6 nM | KD [5]: 1.84 ± 0.08 × 10^-9 M | apparent KD [6]: 25.7 ± 2.4 nM | KD [7]: 12.6 ± 2.0 nM | KD [8]: 10.5 ± 2.4 nM | KD [9]: 8.1 ± 0.9 nM | KD [10]: 19.3 ± 0.8 nM
Compound: NCc1c[nH]c2nc(N)[nH]c(=O)c12
